Measured values reported in US11726082B2, “Screening method of drug candidates for treating disease using interaction between calcium and phosphatidylinositol phosphate” (Gachon University of Industry—Academic Cooperation …, priority 2017, dated 2023).
“Also recorded” adds a separate entry of the source.

Key:
PH domain of Akt protein = biological target: T1, PH domain of Akt protein (Homo sapiens, UniProt P31749); test: Protein-lipid binding assay (PIP-strips) with PH domain of Akt protein; details: calcium 0, 0.05 or 0.1 mM
T1 construct: His6 (C); made in house; host or cells: E. coli BL21 (DE3), pET28a vector
T1 sequence (P31749 1-144): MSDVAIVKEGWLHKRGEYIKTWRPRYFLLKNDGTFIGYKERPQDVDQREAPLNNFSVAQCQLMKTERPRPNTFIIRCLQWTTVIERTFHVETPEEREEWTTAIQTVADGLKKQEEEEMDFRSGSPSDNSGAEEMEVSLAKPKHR
Protocol: E. coli BL21 (DE3) cells were transfected with a vector containing the PH domain of Akt protein, and the cells were cultured in 50 Ml of LB medium supplemented with 50 μg/Ml of kanamycin. The culture was performed at 37° C. for 8 hours. Upon completion of the culture, the cells were transferred into a 25° C. agitation incubator. The cells were cultured until OD600 reached 0.6 to 1.0, and then 1 mM IPTG (isopropyl-β-D-1-thiogalactopyranoside) was added thereto. 18 hours after the addition of IPTG, centrifugation was performed at 7,000×g at 4° C. for 10 minutes to obtain cells. Sonication equilibrium buffer (150 mM NaCl, 50 mM Tris-HCl, pH 7.6) was added to the obtained cells. The cells added with the sonication equilibrium buffer were lysed by sonication. The PH domain of Akt protein was purified from the cell lysate by […] using nickel-nitrilotriacetic acid and HiLoad Superdex-200 column (GE Healthcare life science, USA). The purity of the purified protein was examined by SDS-PAGE (sodium dodecyl sulfate polyacrylamide gel electrophoresis).
Particularly, the analysis was performed by using membrane-immobilized lipid strips (PIP-strips, Echelon Biosciences Inc., USA). […]

[1] = biological target: T2, PH domain of the purified Akt protein (Homo sapiens, UniProt P31749); test: ITC of binding of PH domain of purified Akt protein to phospholipids; details: increase of the calcium concentration
T2 construct: His6 (C); made in house; host or cells: E. coli BL21 (DE3), pET28a vector
T2 sequence (P31749 1-144): as above
Protocol: (§1) Particularly, a protein solution was prepared by suspending a protein in 10 mM HEPES (pH 7.0). Phospholipid related ligand was titrated in the protein solution at 25° C. by using iTC200 micro calorimetry system (MicroCal Inc., USA), and the generated graph was corrected using Origin software (MicroCal Inc., USA). At this time, the phospholipid related ligand was prepared in the form of liposome by mixing POPC (1-palmitoyl-2-oleoyl-sn-glycero-3-phosphocholin) chloroform solution and POPS (1-palmitoyl-2-oleoyl-sn-glycero-3-phosphoserine), PI(3,4)P2 (1,2-dipalmotoyl-sn-glycero-3-phosphatidylinositol-3,4-[…]), PI(4,5)P2 (1,2-dipalmotoyl-sn-glycero-3-phosphatidylinositol-4,5-trisphosphate) or PI(3,4,5)P3 (1,2-dipalmotoyl-sn-glycero-3-phosphatidylinositol-3,4,5-trisphosphate) at the molar ratio of 80:20. The organic solvent was eliminated. The organic solvent was removed and a single layer lamellar was produced in HEPES (pH 7.0) using phospholipids.

Akt protein [2] = test: Western blotting of Akt protein phosphorylation in insulin-treated HepG2 cells; format: cell-based, human; details: verapamil 0, 5, 10 or 100 nM, with or without insulin
Protocol: First, male C57BL/6 mice at 8 weeks were divided into the fasted group wherein the mice were fasted for 16 hours and the refed group wherein the mice were fasted for 16 hours and then fed for 4 hours. Each group was sub-divided into the high fat diet group (HFD) and the normal diet group (chow). The liver cells were extracted from the raised mice by the same manner and under the same conditions as described in Example 1. The extracted liver cells were lysed in a lysis buffer containing phosphatase (Sigma-Aldrich, USA) and protease inhibitor (Sigma-Aldrich, USA). Proteins extracted from 2 to 3 mg of the liver tissue were homogenized by using a tissue homogenizer (TissuLyser, Qiagen, USA) for 1.5 minutes at a frequency of 1/30 sec. The homogenized lysate was centrifuged at 12,000 rpm for 15 minutes and the supernatant was obtained. The amount of the extracted protein was quantified by using a protein assay kit (Bio-Rad Laboratories, USA), and at this time BSA was used as a standard sample. 3 mg of the protein was mixed with 6× loading buffer, followed by electrophoresis using 10% SDS-PAGE gel. The electrophoresed protein was transferred onto a polyvinylidene fluoride (PVDF) membrane by using a transfer buffer at 4° C. with 120 V for 1.5 hours. The PVDF membrane on which the protein was transferred was pretreated with a blocking buffer prepared by mixing 5% skim milk with TBS buffer (TBS-T, pH 7.6) supplemented with Tween 20 for 30 minutes, and the membrane was washed with TBS-T. The washed membrane was added with the antibody against Akt (Cell Signaling Technology, USA), Akt(T308) (Cell Signaling Technology, USA), Akt(S473) (Cell Signaling Technology, USA), FOXO3A (Cell Signaling Technology, USA), FOXO3A(S253) (Cell Signaling Technology, USA), GSK-3β (Cell Signaling Technology, USA) or GSK-3β(S9) (Cell Signaling Technology, USA) protein as a primary antibody, followed by reaction at 4° C. for 12 hours. At this time, the antibody against actin (Santa Cruz Biotechnology, USA) protein was used for the control group. Upon completion of the reaction, the secondary antibody corresponding to the primary antibody was added thereto, followed by reaction at room temperature for 30 minutes. The PVDF membrane was washed with TBS-T buffer three times. The washed PVDF membrane was added with ECL solution (Thermo Scientific, USA), followed by image observation.
To investigate the changes in insulin sensitivity when insulin was added to the fatty liver cell model constructed in vitro, the phosphorylations of those proteins that were involved in insulin signal transduction were examined. PA was added to the human HepG2 cells prepared in Example 3, followed by reaction for 24 hours. […]

[3] = system: cells having an increased intracellular calcium concentration; test: Calcium concentration in cells having an increased intracellular calcium concentration; format: cell-based; details: cells having an increased intracellular calcium concentration treated with verapamil
[4] = ITC of PKCβ protein C2 domain with PI(3,4,5)P3 liposome; format: binding
Protocol: as §1
In the meantime, in ITC, the phospholipid related ligand was prepared in the form of liposome by mixing POPC chloroform solution and PI(3,4,5)P3 at the molar ratio of 80:20. Then, ITC was performed by the same manner under the same conditions as described in Example <7-3> except that the PKCβ protein C2 domain or D187/193A, the C2 domain mutant, was used.

[5] = Protein-lipid binding assay with PKCβ protein C2 domain, PI(3,4,5)P3; details: calcium 0, 0.05 or 0.1 mM
Protocol: (§2) Particularly, the analysis was performed by using membrane-immobilized lipid strips (PIP-strips, Echelon Biosciences Inc., USA). At this time, the membrane was loaded with LPA (lysophosphatidic acid), LPC (lysophosphatidylcholine), PI (phosphatidylinositol), PE (phosphatidylethanolamine), PC (phosphatidylcholine), S1P (sphingosine 1-phosphate), PA (phosphatidic acid) or PS (phosphatidylserine) at the concentration of 100 pmol, to which calcium was added at the concentration of 0, 0.05 or 0.1 mM. Each membrane was pre-treated with a blocking buffer [fatty acid free 3% BSA (bovine serum albumin), 0.1% (v/v) Tween 20 and TBS (Tris-buffered saline), pH 7.5] at room temperature for 30 minutes. The PH domain of Akt protein purified in Example <7-1> was suspended in a blocking buffer at the concentration of 3.5 mg/Ml. The suspended protein was reacted with the membrane-immobilized lipid strip at room temperature for 30 minutes. The protein bound with lipid was identified by using the PH domain antibody.
(§3) To investigate whether or not the binding of the PKCβ protein C2 domain purified in Example <8-1> to PI(4,5)P2 or PI(3,4,5)P3 was inhibited by calcium, protein lipid binding assay and ITC were performed. […]

CHO cells = test: Migration of mCherry-tagged PH or C2 domain to the cell membrane, fluorescence microscopy; format: cell-based
Excerpt: First, the PH domain of Akt1 protein or C2 domain of PKCβ protein was obtained by PCR using the primers consisting of the nucleotide sequences represented by […]. The obtained PCR product was cloned in pmCherry-C1 vector (Takara Clontech, Japan) by the conventional cloning method. CHO cells were transfected with the prepared vector by using lipofectamine according to the manufacturer's protocol. The transfected cells were selected by using blastidicin. Then, mCherry positive cells were confirmed by flow cytometry.
PMA at the concentration of 100 nM, ionomycin at the concentration of 10 μM or insulin at the concentration of 100 nM was added to the cells expressing the PH domain of Akt1 protein or the C2 domain of PKCβ protein and the location of the expressed protein was confirmed by fluorescence microscopy.

[6] = Protein-lipid binding assay with PKCβ protein C2 domain, PI(4,5)P2; details: calcium 0, 0.05 or 0.1 mM
Protocol: as §2, §3

Akt protein [7] = test: Western blot of Akt activation in HepG2 cells transfected with C2-Akt fusion protein or wild type Akt and PI3K; format: cell-based, human; details: increase of calcium concentration (PMA 0, 10, 50 or 100 nM, ionomycin 20 μM, 1 hour)
Excerpt: First, the C2 domain of PKCβ protein and Akt protein (SEQ. ID. NO: 15) were obtained by PCR using the primers consisting of the nucleotide sequences represented by SEQ. ID. NO: 9˜SEQ. ID. The obtained PCR product was cloned in pEGFP-C2 vector by the conventional cloning method, resulting in the construction of a vector expressing the C2 domain/Akt protein fusion protein (SEQ. ID. NO: 17) (C2-Akt fusion protein). At this time, as the control group, a vector expressing the wild type Akt protein containing the PH domain was prepared.
HepG2 cells were transfected with the vector expressing the C2-Akt fusion protein constructed above along with the vector expressing PI3K protein by using lipofectamine according to the manufacturer's protocol. The transfected cells were treated with PMA at the concentration of 0, 10, 50 or 100 nM ionomycin at the concentration of 20 μM, followed by reaction for 1 hour. Western blot analysis was performed with the cells above. […]

What does the source list for `[Ca+2]` [calcium]?
binding of PH domain of Akt protein to PI(3,4)P2 or PI(3,4,5)P3 (PH domain of Akt protein): inhibited; binding of PH domain of Akt protein to PI(3,4)P2, PI(4,5)P2, PI(3,4,5)P3 or PS [1]: inhibited

What does the source list for `COc1ccc(CCN(C)CCCC(C#N)(c2ccc(OC)c(OC)c2)C(C)C)cc1OC` (stereo not drawn) [verapamil]?
phosphorylation of Akt protein (Akt protein [2]): increased; increased calcium concentration [3]: inhibited; also recorded: reduced

For “C2 domain of PKCβ protein: C2 domain of PKCβ protein (SEQ. ID. NO: 14)”, which “binding to PI(3,4,5)P3” value ([4]; absence of calcium) is on record?
The value was “not induced”.

What about the “binding to PI(3,4,5)P3” value ([4]; increased calcium concentration) of the same compound?
Its value is “combined”.

And the “binding to PI(3,4,5)P3” value ([4]; increased calcium concentration, listed as PKCβ protein C2 domain)?
The value was “strongly bound”.

And the “binding to PI(3,4,5)P3” value [5]?
Its value is “strongly bound; also recorded: promoted”.

And the “migration to the cell membrane” value (CHO cells; addition of insulin 100 nM)?
Its value is “did not migrate”.

What about the “migration to the cell membrane” value (CHO cells; increased intracellular calcium concentration (PMA 100 nM, ionomycin 10 μM)) of the same compound?
Its value is “migrated; also recorded: promoted”.

What about the “binding to PI(4,5)P2” value [6] of the same compound?
The value was “strongly bound; also recorded: promoted”.

Which “Akt protein activation by PI3K” value (Akt protein [7]) does the source give for “wild type Akt protein: wild type Akt protein containing the PH domain, control” here?
Its value is “inhibited”.
